Source: patent US10758609B2, “Cross-reactive T-cell epitopes of HIV, SIV, and FIV for vaccines in humans and cats” (priority 2015, dated 2020)

What was measured:
[1] = test system: feline CD3^+CD4^+ T cells; experiment: CFSE-based feline CD3+CD4+ T-cell proliferation; design: species or system cat; settings: FIV-vaccinated cats; for CD4, frequency of responders: FIV epitope peptide; for CDC4^+ T (T-cell proliferation), frequency of responders: FIV peptides
Description: Carboxyfluorescein diacetate succinimide ester (CFSE)-proliferation was performed according to the manufacturer's protocol (Invitrogen, Grand Island, N.Y.) and processed using a previously described modification. The modification consisted of 2.5×10^5 CFSE-labeled feline PBMC stimulated for 5 days (37° C., 5% CO2) with 4 μg/mL peptide in culture media (RPMI medium 25 µg/mL gentamycin, and 10% heat-inactivated fetal bovine serum (FBS)). Peptide pools consisted of 3-5 overlapping peptides of 4 μg/mL each. The antibodies used for flow cytometry based proliferation analysis consisted of murine anti-feline (Fe) CD3 monoclonal antibody (MAb clone kindly provided by Drs. Yorihiro Nishimura and Takayuki Miyazawa; described in [32]) combined with secondary goat anti-mouse IgG3-APC/CY7 MAb (SouthernBiotech, Birmingham, Ala.; Cat#1100-19); and murine anti-FeCD4-PE MAb (SouthernBiotech, Cat#8130-09); and murine anti-FeCD8 MAb (MAb clone kindly provided by Dr. Nazareth Gengozian, described in [33]) with secondary goat anti-mouse IgG2a-PE/CY7 (Southern Biotech, Cat#1080-17). The murine anti-B220-APC MAb for detecting feline B cells (SouthernBiotech, Cat#1665-11) and previously described MAbs for CFSE were used for FACS phenotyping. Both FACS phenotyping and CFSE-proliferation analyses were performed with BD LSRII and FACSDiva™ Software (BD Biosciences, San Jose, Calif.). The final value for each sample was derived after subtraction of the average value of the media controls using a positive threshold of ≥1 CFSE^low.
Concurrently, the overlapping peptide pools of FIV structural/enzyme proteins were used to stimulate PBMC and T cells from FIV-vaccinated cats. These cats were vaccinated with prototype dual-subtype FIV vaccine which was the prototype to our commercial FIV vaccine (Coleman et al., 2014). The feline assays (Example 1) equivalent to those of human assays (Sanou et al., 2013; Roff et al., 2015) were used except for ICS analysis. In place of ICS for cytolysin/cytotoxins, IL2 ELISpot analysis was performed. […] The results for FIV-vaccinated cats included IFNγ and IL2 productions and CD3^+CD4+ and CD3^+CD8^+ T-cell proliferation (Table 9, the second set of results).
Carboxyfluorescein diacetate succinimide ester (CFSE)-proliferation analysis was according to the manufacturer's protocol (Invitrogen-Fisher, Carlsbad, Calif.) and processed as previously described (Roff et al. (2015)) using the following modifications: anti-feline CD3 antibody ((clone NZM1), a generous gift from T. Miyazawa (Univ. of Tokyo, Japan)) in combination with APC-conjugated anti-mouse IgG3 (Southern Biotech, Birmingham, Ala.), PE-conjugated anti-feline CD4 antibody (Southern Biotech), and anti-feline CD8 antibody (gift from N. Gengozian, University of Tennessee (Gengozian et al. (1997))) in combination with PE/Cy7-conjugated anti-mouse IgG2b (Southern Biotech) to detect the proliferation of feline CD3^+CD4+ T cells and feline […]. All results shown in the figures (FIGS. 7A-1, 7B-1, 7A-2, 7B-2, 7A-3, 7B-3) are after subtracting the average value of each results from all control cats. The threshold of CFSE proliferation is ≥0.5 CFSE^low. […]

[2] = test system: CD3^+CD4^+ T cells from HIV^+ subjects; experiment: CFSE-based CD3+CD4+ T-cell proliferation, HIV+ human subjects; settings: for CD4, frequency of responders: FIV epitope peptide; for CDC4^+ T (T-cell proliferation), frequency of responders: FIV peptides
Description: The overlapping peptide pools of FIV and HIV-1 structural and enzyme proteins were used to stimulate the […] (PBMC) and the T cells from HIV^+ subjects as previously described for epitope mapping of HIV-1 and FIV p24 and reverse transcriptase (RT) (Sanou et al., 2013; Roff et al., 2015). The individual peptides in those peptide pools with positive responses to either interferon-γ (IFNγ) production and/or T-cell proliferation were determined with IFNγ ELISpot analysis and CFSE-based CD3^+CD4^+ and CD3^+CD8^+ T-cell proliferation analyses followed by the FACS-based intracellular staining (ICS) for cytolysin (perforin) and cytotoxin (granzyme A [GrzA] and GrzB) (Sanou et al., 2013; Roff et al., 2015). Besides viral p24 and RT proteins, the identical approach was used to identify anti-HIV/FIV T-cell epitopes on viral matrix (MA), nucleocapsid (NC), protease (PR), RNAase, integrase (IN), surface envelope (SU Env), and transmembrane envelope (TM Env) (FIG. 12).
Since our goal is to develop HIV vaccine for human use, the HIV peptides (Table 10) counterpart of the cross-reactive FIV peptides shown in Table 9 were tested with PBMC and T cells from HIV^+ subjects. The immune functions analyzed were human IFNγ production by ELISpot, cytolysin/cytotoxin production by ICS, and CFSE-based proliferation of CD3^+CD4^+ and CD3^+CD8^+ T cells from HIV^+ subjects (Table 10, the first set of results). In addition, the Los Alamos National Laboratories (LANL) database was used to identify the HLA allele(s) of the HIV epitope sequence with CTL activity that can exist within the sequence of the conserved counterpart HIV peptide (Table 9, LANL CTL). The bold HLA class-I supertypes and the bold 2-digit alleles are those on the “Optimal CD8^+ CTL Epitopes” list and those without bold are alleles for potential CTL epitope. […] The HLA class II such as HLA-DRB1 has yet to be fully classified into supertypes, and therefore the 4-digit resolution nomenclatures for the HLA-DRB1 alleles are shown.
The threshold for positive IFNγ and IL2 ELISpot responses is ≥50 spot-forming units (SFU) per 10^6 PBMC. The threshold for CFSE-based CD4^+ and CD8^+ T-cell proliferation is ≥2% CD4^+ T-cell CFSE^low or CD8^+ T-cell CFSE^low. The threshold of FACS-based intracellular cytokine staining (ICS) is ≥0.2%. […] The nine FIV peptides in black were used in the current MAP vaccine trial, whereas the 13 peptides in blue were not used. […] The MAPs and their corresponding peptide(s) were also tested for their ability to enhance or suppress in vitro FIV infection of feline PBMC (E/S of peptides and E/S of MAP).
The counterpart HIV-1 peptides of the FIV peptides were also tested for immunogenicity using PBMC and T cells from HIV^+ human subjects. […] The HRT7-1 and HRT7-2 were also tested with cells from HIV^+ subjects on ART. The threshold for positive IFNγ ELISpot response is ≥75 spot-forming units (SFU) per 10^6 PBMC. The threshold for CFSE-based CD4^+ (CD4^+ T) and CD8^+ (CD8^+ T) T-cell proliferation is ≥2% CD4^+ T-cell CFSE^low or CD8^+ T-cell CFSE^low. The threshold of intracellular cytokine staining (ICS) of FACS-based cytolysin (perforin) and cytotoxins (granzymes A and B) in CD4^+ T cells (CyCD4) and CD8^+ T cells (CyCD8) is ≥0.2%. […] The nine HIV-1 peptides in black are the counterpart FIV peptides used in the current MAP vaccine trial, whereas the 13 peptides in blue were not.

## AGLRQSLEQYQVVKQ [FSU4]
[1]
  CD4, frequency of responders: +++ (41%-54% (+++))
  CDC4^+ T (T-cell proliferation), frequency of responders: +++ (40.1%-54% (+++))
[2]
  CD4, frequency of responders: — (0%-1.4% (—))
  CDC4^+ T (T-cell proliferation), frequency of responders: — (0%-1.4%(—))

## KFLYTAFAMQELR [FTM4-3]
[1]
  CD4, frequency of responders: ++ (26%-40% (++))
  CDC4^+ T (T-cell proliferation), frequency of responders: ++ (25.1%-40% (++))
[2]
  CD4, frequency of responders: — (0%-1.4% (—))
  CDC4^+ T (T-cell proliferation), frequency of responders: — (0%-1.4%(—))

## KKKSGKWRMLIDFRV [FRT3-3]
[1]
  CD4, frequency of responders: ++ (26%-40% (++))
  CDC4^+ T (T-cell proliferation), frequency of responders: ++ (25.1%-40% (++))
[2]
  CD4, frequency of responders: — (0%-1.4% (—))
  CDC4^+ T (T-cell proliferation), frequency of responders: — (0%-1.4%(—))

## LLLILCLPTLVDCIRN [FTM8(20)]
[1]
  CD4, frequency of responders: ++ (26%-40% (++))
  CDC4^+ T (T-cell proliferation), frequency of responders: ++ (25.1%-40% (++))
[2]
  CD4, frequency of responders: ++ (26%-40% (++))
  CDC4^+ T (T-cell proliferation), frequency of responders: ++ (25.1%-40% (++))

## PTDMATLIMAAPGCA [Fp4-3]
[1]
  CD4, frequency of responders: ++++ (>54% (++++))
  CDC4^+ T (T-cell proliferation), frequency of responders: ++++ (>54% (++++))
[2]
  CD4, frequency of responders: — (0%-1.4% (—))
  CDC4^+ T (T-cell proliferation), frequency of responders: — (0%-1.4%(—))

## WRMLIDFRVLNKL [FRT3-4]
[1]
  CD4, frequency of responders: + (12.5%-25% (+))
  CDC4^+ T (T-cell proliferation), frequency of responders: + (12.5%-25% (+))
[2]
  CD4, frequency of responders: — (0%-1.4% (—))
  CDC4^+ T (T-cell proliferation), frequency of responders: — (0%-1.4%(—))
